Data as given in US11629143B2, “HipK4 inhibitors and uses thereof” (Vibliome Therapeutics, LLC, priority 2020, dated 2023).

Columns and labels:
Assay in all cases: Kinase panel (mobility shift)
Assay type in all cases: biochemical
BRK = BRK (Homo sapiens, UniProt Q13882)
Protocol: (§1) The disclosed compounds were tested for activity against a panel of 299 kinases. The target enzyme was incubated with fluorescently labeled substrate and test compounds in a standardized reaction mixture in 384 well plates. Upon termination of the reaction, samples were introduced onto microfluidic chips. The samples migrated through channels in the chips and product and substrate were separated based on the difference in their charge (electrophoretic mobility shift). Enzyme activity was measured by direct comparison of the fluorescence in the product and substrate peaks. […] In the tables A=95% or greater at 5 um, B=90%-94% at 5 um, and C=80%-89% at 5 um. [note to draft: we included category D for 50-79 and category E is less than 50%. Feel free to remove if not needed)

EPH-A4 = EPH-A4 (Homo sapiens, UniProt P54764)
Protocol: as §1

EPH-A5 = EPH-A5 (Homo sapiens, UniProt P54756); conditions: at 5 um
Protocol: as §1

HIPK4 = molecular target: T1, HIPK4 (Homo sapiens, UniProt Q8NE63)
T1 sequence (Q8NE63 1-616): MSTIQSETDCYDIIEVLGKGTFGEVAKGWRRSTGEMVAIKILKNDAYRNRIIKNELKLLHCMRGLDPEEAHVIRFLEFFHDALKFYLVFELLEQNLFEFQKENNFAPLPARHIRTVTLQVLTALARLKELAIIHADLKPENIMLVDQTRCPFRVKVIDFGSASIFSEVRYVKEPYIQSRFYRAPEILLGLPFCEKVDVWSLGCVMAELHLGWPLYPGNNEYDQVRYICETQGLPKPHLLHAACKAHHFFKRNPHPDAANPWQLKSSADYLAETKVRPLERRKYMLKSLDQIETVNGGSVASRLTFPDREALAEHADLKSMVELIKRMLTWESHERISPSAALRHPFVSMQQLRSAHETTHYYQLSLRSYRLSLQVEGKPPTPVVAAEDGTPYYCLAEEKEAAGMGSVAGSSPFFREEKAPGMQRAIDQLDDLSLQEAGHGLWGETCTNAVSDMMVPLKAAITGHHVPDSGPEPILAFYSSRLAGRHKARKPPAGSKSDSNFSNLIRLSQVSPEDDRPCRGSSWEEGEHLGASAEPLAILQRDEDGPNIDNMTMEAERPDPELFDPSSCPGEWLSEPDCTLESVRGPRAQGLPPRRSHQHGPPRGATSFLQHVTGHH
Protocol: as §1

KIT = KIT (Homo sapiens, UniProt P10721)
Protocol: as §1

LCK = LCK (Homo sapiens, UniProt P06239)
Protocol: as §1

MUSK = molecular target: T2, MUSK (Homo sapiens, UniProt O15146)
T2 sequence (O15146 24-869): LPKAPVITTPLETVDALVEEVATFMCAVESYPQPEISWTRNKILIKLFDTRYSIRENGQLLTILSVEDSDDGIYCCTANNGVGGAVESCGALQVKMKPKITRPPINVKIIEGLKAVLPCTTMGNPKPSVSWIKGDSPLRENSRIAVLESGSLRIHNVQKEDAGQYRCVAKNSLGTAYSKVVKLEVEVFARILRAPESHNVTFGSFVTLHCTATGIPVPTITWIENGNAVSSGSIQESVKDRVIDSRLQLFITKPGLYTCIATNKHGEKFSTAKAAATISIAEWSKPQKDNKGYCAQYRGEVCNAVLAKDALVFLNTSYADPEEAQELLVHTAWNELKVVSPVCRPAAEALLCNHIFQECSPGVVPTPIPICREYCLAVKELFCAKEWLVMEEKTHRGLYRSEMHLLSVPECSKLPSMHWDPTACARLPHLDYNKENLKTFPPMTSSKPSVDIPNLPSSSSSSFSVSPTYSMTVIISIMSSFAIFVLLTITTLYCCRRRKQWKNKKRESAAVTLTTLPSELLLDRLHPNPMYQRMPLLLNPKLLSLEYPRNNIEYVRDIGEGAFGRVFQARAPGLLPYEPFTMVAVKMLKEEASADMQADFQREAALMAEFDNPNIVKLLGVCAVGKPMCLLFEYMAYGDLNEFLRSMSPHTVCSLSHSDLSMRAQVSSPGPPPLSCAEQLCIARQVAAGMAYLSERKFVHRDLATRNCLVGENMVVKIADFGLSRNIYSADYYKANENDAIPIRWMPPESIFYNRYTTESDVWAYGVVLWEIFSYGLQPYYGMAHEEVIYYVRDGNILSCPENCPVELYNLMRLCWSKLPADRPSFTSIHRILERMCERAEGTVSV
Protocol: as §1

PDGFR-a = PDGFR-a (Homo sapiens, UniProt P16234)
Protocol: as §1

TRKA = TRKA (Homo sapiens, UniProt P04629)
Protocol: as §1

EPH-A4, sequence (P54764 20-986, species assumed): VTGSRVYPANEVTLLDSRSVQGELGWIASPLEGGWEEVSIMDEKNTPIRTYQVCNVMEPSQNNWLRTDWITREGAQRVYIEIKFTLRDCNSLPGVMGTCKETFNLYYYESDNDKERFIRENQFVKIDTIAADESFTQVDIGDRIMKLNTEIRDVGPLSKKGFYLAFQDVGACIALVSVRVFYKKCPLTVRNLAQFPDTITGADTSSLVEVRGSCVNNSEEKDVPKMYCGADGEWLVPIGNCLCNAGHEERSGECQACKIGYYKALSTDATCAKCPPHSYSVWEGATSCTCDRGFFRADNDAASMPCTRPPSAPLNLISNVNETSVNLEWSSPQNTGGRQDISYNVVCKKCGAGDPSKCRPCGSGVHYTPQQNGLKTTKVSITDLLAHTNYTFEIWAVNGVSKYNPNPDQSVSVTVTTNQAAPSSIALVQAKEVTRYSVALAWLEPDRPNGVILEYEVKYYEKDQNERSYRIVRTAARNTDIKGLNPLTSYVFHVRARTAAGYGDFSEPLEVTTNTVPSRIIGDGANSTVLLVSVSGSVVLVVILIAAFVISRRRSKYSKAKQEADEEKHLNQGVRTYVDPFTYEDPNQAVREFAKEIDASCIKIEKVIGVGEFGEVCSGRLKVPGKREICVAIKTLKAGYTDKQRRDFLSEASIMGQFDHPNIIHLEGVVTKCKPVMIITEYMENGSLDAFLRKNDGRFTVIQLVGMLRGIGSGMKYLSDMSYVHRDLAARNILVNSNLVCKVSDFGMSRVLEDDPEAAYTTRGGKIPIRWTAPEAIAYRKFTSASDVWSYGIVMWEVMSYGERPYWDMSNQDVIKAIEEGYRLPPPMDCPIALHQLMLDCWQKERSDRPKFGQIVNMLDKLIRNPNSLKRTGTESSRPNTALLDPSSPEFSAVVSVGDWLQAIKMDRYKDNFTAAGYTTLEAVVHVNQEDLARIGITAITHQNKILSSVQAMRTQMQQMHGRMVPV
LCK, sequence (P06239 whole entry, species assumed): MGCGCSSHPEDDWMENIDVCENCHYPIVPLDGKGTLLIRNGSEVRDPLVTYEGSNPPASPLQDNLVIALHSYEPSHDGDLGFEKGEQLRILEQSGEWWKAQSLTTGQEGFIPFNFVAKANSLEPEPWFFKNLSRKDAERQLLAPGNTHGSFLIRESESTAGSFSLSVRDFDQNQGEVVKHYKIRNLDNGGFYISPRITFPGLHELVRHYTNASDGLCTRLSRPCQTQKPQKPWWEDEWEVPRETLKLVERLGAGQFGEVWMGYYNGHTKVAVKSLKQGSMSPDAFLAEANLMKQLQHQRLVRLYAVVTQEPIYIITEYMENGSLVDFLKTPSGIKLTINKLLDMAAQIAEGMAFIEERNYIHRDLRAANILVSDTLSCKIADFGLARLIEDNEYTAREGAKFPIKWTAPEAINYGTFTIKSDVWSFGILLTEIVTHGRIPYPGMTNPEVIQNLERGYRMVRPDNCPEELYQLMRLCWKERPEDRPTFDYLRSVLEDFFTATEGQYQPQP
BRK, sequence (Q13882 whole entry, species assumed): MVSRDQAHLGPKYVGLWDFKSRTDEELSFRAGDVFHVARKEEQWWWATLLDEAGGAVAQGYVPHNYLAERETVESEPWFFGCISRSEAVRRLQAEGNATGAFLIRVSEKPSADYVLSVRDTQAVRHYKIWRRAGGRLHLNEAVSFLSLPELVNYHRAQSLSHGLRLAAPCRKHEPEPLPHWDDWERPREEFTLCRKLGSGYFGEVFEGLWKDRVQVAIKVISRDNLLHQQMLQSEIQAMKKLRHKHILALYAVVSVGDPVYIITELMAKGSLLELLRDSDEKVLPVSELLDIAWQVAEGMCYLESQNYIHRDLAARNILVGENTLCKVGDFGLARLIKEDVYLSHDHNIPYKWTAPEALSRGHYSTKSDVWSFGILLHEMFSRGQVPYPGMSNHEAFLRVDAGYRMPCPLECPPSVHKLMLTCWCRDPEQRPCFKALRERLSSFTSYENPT
PDGFR-a, sequence (P16234 24-1089, species assumed): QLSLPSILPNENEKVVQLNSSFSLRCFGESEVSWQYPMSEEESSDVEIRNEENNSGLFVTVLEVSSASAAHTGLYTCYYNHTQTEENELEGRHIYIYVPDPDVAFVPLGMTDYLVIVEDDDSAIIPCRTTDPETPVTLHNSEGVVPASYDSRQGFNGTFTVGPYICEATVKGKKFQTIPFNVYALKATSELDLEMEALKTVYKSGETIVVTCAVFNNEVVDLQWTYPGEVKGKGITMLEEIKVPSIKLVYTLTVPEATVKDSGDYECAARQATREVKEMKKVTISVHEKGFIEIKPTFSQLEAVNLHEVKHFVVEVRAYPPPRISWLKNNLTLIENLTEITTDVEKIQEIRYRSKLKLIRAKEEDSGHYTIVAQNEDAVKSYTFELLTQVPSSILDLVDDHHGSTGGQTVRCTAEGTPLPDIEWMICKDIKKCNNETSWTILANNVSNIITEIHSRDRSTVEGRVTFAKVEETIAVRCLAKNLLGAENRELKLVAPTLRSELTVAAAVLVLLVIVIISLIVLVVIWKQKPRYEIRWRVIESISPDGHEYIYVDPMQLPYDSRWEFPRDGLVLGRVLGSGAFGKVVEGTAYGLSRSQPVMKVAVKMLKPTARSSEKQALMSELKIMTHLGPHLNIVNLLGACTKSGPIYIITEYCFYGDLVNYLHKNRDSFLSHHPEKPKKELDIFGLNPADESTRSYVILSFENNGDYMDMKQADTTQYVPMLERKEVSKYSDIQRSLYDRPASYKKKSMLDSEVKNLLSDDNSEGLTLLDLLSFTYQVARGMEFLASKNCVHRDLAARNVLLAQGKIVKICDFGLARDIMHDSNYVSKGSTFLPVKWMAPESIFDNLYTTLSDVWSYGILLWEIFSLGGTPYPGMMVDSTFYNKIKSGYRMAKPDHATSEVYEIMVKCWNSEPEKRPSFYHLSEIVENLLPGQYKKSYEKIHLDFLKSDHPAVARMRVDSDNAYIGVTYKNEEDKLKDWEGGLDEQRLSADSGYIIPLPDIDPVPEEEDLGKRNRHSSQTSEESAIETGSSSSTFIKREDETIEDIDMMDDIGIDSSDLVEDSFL
EPH-A5, sequence (P54756 25-1037, species assumed): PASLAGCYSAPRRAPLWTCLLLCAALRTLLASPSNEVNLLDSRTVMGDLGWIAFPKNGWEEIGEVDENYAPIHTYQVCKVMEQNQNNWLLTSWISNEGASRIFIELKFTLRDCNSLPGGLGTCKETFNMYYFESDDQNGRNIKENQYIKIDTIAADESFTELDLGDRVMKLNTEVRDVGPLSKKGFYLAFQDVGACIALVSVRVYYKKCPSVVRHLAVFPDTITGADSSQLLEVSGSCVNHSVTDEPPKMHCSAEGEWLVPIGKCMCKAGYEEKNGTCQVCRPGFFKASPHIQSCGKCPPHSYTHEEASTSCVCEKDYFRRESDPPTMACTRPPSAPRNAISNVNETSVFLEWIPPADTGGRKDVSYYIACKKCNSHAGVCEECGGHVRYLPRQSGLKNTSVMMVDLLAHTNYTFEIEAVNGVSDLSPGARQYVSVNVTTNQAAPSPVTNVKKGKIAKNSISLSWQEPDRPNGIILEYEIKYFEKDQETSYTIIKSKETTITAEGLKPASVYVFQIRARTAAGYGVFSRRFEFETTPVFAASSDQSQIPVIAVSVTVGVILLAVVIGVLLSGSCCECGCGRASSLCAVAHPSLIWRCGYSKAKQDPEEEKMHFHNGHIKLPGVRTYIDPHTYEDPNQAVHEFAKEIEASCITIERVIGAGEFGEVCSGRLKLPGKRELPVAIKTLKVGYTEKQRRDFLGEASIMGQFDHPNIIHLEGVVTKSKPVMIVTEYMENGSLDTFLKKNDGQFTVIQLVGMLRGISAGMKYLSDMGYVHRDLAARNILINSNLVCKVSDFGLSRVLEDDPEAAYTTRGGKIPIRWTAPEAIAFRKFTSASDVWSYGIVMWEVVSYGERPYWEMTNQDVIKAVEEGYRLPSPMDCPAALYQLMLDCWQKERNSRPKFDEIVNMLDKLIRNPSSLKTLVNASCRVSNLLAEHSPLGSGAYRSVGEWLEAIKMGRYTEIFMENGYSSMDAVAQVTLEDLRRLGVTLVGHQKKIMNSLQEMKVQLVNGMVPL
TRKA, sequence (P04629 33-796, species assumed): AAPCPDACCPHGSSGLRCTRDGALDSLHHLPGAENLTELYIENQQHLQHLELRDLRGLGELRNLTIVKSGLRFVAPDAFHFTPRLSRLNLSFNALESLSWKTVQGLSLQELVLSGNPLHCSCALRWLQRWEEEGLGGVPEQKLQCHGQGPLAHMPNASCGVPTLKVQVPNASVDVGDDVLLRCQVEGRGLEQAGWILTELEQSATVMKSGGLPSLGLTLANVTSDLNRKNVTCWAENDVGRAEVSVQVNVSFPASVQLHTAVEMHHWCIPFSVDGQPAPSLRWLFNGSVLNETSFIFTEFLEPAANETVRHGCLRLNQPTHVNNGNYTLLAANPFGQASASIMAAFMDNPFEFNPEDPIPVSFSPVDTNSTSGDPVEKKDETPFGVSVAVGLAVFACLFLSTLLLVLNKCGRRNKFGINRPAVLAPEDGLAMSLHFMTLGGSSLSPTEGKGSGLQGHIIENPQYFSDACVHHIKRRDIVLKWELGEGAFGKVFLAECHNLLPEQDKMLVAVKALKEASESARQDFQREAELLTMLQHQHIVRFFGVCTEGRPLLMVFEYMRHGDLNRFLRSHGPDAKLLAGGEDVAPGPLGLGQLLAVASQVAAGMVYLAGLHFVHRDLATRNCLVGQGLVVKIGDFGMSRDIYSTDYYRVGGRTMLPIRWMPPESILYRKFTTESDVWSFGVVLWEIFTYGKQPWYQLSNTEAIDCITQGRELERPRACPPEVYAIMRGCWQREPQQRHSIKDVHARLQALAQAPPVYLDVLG

SMILES	inhibition at 5 µM (BRK) [%]	inhibition at 5 µM (EPH-A4) [%]	inhibition of kinase activity, EPH-A5 (EPH-A5)	inhibition at 5 µM (HIPK4) [%]	inhibition at 5 µM (KIT) [%]	inhibition at 5 µM (LCK) [%]	inhibition at 5 µM (MUSK) [%]	inhibition at 5 µM (PDGFR-a) [%]	inhibition at 5 µM (TRKA) [%]
CSc1nc(C(=O)Nc2ccc(Oc3ccnc(C(=O)NC4COC4)c3)c(F)c2)c(-c2ccc(F)cc2)o1 [Compound 31]	80 to 89	< 50	E (category E is less than 50%)	≥ 95	< 50	< 50	< 50	< 50	< 50
CSc1nc(C(=O)Nc2ccc(Oc3ccnc(C(=O)NC4CNC4)c3)c(F)c2)c(-c2ccc(F)s2)o1 [Compound 27]	< 50	< 50	E (category E is less than 50%)	≥ 95	< 50	< 50	< 50	< 50	< 50
COc1nc(C(=O)Nc2ccc(Oc3ccnc(C(=O)NC4COC4)c3)c(F)c2)c(-c2ccc(F)cc2)o1 [Compound 39]	50 to 79	< 50	E (category E is less than 50%)	≥ 95	< 50	< 50	< 50	< 50	< 50
CSc1nc(C(=O)Nc2ccc(Oc3ccnc(-c4cnn(C)c4)c3)c(F)c2)c(-c2ccc(F)cc2)o1 [Compound 11]	≥ 95	90 to 94	C (C=80%-89% at 5 um)	≥ 95	80 to 89	90 to 94	50 to 79	90 to 94	50 to 79
CNC(=O)c1cc(Oc2ccc(NC(=O)c3nc(OC)oc3-c3ccc(F)c(F)c3)cc2F)ccn1 [Compound 24]	< 50	< 50	E (category E is less than 50%)	≥ 95	< 50	50 to 79	< 50	< 50	50 to 79
CNC(=O)c1cc(Oc2ccc(NC(=O)c3nc(OCC(F)(F)F)oc3-c3ccc(F)cc3)cc2F)ccn1 [Compound 38]	90 to 94	< 50	E (category E is less than 50%)	≥ 95	< 50	50 to 79	< 50	< 50	50 to 79
CNC(=O)c1cc(Oc2ccc(NC(=O)c3nc(NC)sc3-c3ccc(F)cc3F)cc2F)ccn1 [Compound 21]	< 50	< 50	D (category D for 50-79)	≥ 95	< 50	< 50	< 50	< 50	50 to 79
CNC(=O)c1cc(Oc2ccc(NC(=O)c3nc(SC)oc3-c3ccc(F)cc3F)cc2)ccn1 [Compound 6]	≥ 95	< 50	E (category E is less than 50%)	90 to 94	80 to 89	≥ 95	< 50	< 50	80 to 89
